Source: patent US6777412B2 (priority 1990, dated 2004)
Like-named read-outs stand apart in the source and are kept apart here. Marks after values point to notes of the source that are not given here.

Key:
Pyricularia oryzae = assay type: in vivo
Erysiphe graminis hordei = experiment: Foliar fungal disease test on plants: Erysiphe graminis hordei (Egh); assay type: in vivo
Cercospora arachidicola = experiment: Foliar fungal disease test on plants: Cercospora arachidicola (Ca); assay type: in vivo
Method: The compounds were tested against a variety of foliar fungal diseases of plants. The technique employed was as follows.
The plants were grown in John Innes Potting Compost (No.1 or 2) in 4 cm diameter minipots. The test compounds were formulated either by bead milling with aqueous Dispersol T or as a solution in acetone or acetone/ethanol which was diluted to the required concentration immediately before use. For the foliage diseases, the formulations (100 ppm active ingredient except where otherwise indicated) were sprayed onto the foliage and applied to the roots of the plants in the soil. The sprays were applied to maximum retention and the root drenches to a final concentration equivalent to approximately 40 ppm a.i. in dry soil. Tween 20, to give a final concentration of 0.05%, was added when the sprays were applied to cereals.
For most of the tests the compound was applied to the soil (roots) and to the foliage (by spraying) one or two days before the plant was inoculated with the disease. An exception was the test on Erysiphe graminis in which the plants were inoculated 24 hours before treatment. Foliar pathogens were applied by spray as spore suspensions onto the leaves of test plants. After inoculation, the plants were put into an appropriate environment to allow infection to proceed and then incubated until the disease was ready for assessment. The period between inoculation and assessment varied from four to fourteen days according to the disease and environment.
The disease control vas recorded by the following grading:
3=trace-5% of disease on untreated plants
2=6-25% of disease on untreated plants
1=26-59% of disease on untreated plants
0=60-100% of disease on untreated plants
Ca Cercospora arachidicola

Puccinia recondita = experiment: Foliar fungal disease test on plants: Puccinia recondita (Pr); assay type: in vivo
Outline: (§1)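 Potted plants treated by foliar spray to maximum retention (100 ppm a.i. unless stated) plus root drench (~40 ppm a.i. in dry soil), with 0.05% Tween 20 on cereals, one or two days before spore-suspension inoculation.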

[1] = system: Phytophthora infestans lycopersici; assay type: in vivo
Venturia inaequalis = experiment: Foliar fungal disease test on plants: Venturia inaequalis (Vi); assay type: in vivo
Outline: as §1

Plasmopara viticola = experiment: Foliar fungal disease test on plants: Plasmopara viticola (Pv); assay type: in vivo
Outline: as §1

[2] = 100 ppm active ingredient foliar spray plus root drench (approx. 40 ppm a.i. in dry soil), one or two days before inoculation
[3] = 100 ppm active ingredient foliar spray plus root drench (approx. 40 ppm a.i. in dry soil), plants inoculated 24 hours before treatment

SMILES	melting point [°C]	disease control grading, Po (Pyricularia oryzae) (Pyricularia oryzae; [2])	disease control grading, Egh (Erysiphe graminis hordei) (Erysiphe graminis hordei; [3])	disease control grading, Ca (Cercospora arachidicola) (Cercospora arachidicola; [2])	disease control grading, Pr (Puccinia recondita) (Puccinia recondita; [2])	disease control grading, Pil (Phytophthora infestans lycopersici) [1, 2]	disease control grading, Vi (Venturia inaegualis) (Venturia inaequalis; [2])	disease control grading, Pv (Plasmopara viticola) (Plasmopara viticola; [2])	disease control grading, Po (Pyricularia oryzae) (Pyricularia oryzae; 10 ppm foliar application only)	disease control grading, Egh (Erysiphe graminis hordei) (Erysiphe graminis hordei; 10 ppm foliar application only)	disease control grading, Ca (Cercospora arachidicola) (Cercospora arachidicola; 10 ppm foliar application only)	disease control grading, Pr (Puccinia recondita) (Puccinia recondita; 10 ppm foliar application only)	disease control grading, Pil (Phytophthora infestans lycopersici) ([1]; 10 ppm foliar application only)	disease control grading, Vi (Venturia inaegualis) (Venturia inaequalis; 10 ppm foliar application only)	disease control grading, Pv (Plasmopara viticola) (Plasmopara viticola; 10 ppm foliar application only)
CO/C=C(/C(=O)OC)c1ccccc1Oc1cc(OCc2ccc([N+](=O)[O-])cc2)ncn1	96 to 98														
CO/C=C(/C(=O)OC)c1ccccc1Oc1cc(Nc2ccccc2)ncn1 [4 of Table I]		3 (3=trace-5% of disease on untreated plants)	4 (4=no disease)	4 (4=no disease)	4 (4=no disease)	3 (3=trace-5% of disease on untreated plants)	4 (4=no disease)	4 (4=no disease)							
CO/C=C(/C(=O)OC)c1ccccc1Oc1cc(OCc2ccccc2)ncn1 [23 of Table I]		4 (4=no disease)	4 (4=no disease)	4 (4=no disease)	4 (4=no disease)		4 (4=no disease)	4 (4=no disease)							
COC=C(C(=O)OC)c1ccccc1Oc1nccc(-c2ccccc2)n1 [180 of Table III]									3^a (3=trace-5% of disease on untreated plants)	4^a (4=no disease)	3^a (3=trace-5% of disease on untreated plants)	4^a (4=no disease)	4^a (4=no disease)	4^a (4=no disease)	4^a (4=no disease)
CO/C=C(/C(=O)OC)c1ccccc1Oc1cc(-c2ccccc2)ncn1 [180 of Table I]			4 (4=no disease)	4 (4=no disease)	4 (4=no disease)		4 (4=no disease)	4 (4=no disease)							
CO/C=C(/C(=O)OC)c1ccccc1Oc1cc(Sc2ccccn2)ncn1 [218 of Table I]		3 (3=trace-5% of disease on untreated plants)	4 (4=no disease)	4 (4=no disease)	4 (4=no disease)	3 (3=trace-5% of disease on untreated plants)	4 (4=no disease)	4 (4=no disease)							
CO/C=C(/C(=O)OC)c1ccccc1Oc1cc(Nc2ccccn2)ncn1 [220 of Table I]		4 (4=no disease)	4 (4=no disease)	4 (4=no disease)	4 (4=no disease)	0 (0=60-100% of disease on untreated plants)	4 (4=no disease)	4 (4=no disease)							
CO/C=C(/C(=O)OC)c1ccccc1Oc1cc(Sc2ncccn2)ncn1 [239 of Table I]		3 (3=trace-5% of disease on untreated plants)	4 (4=no disease)	4 (4=no disease)	4 (4=no disease)	4 (4=no disease)	4 (4=no disease)	4 (4=no disease)							
CO/C=C(/C(=O)OC)c1ccccc1Oc1cc(N(C)c2ccccc2C#N)ncn1 [354 of Table I]		3 (3=trace-5% of disease on untreated plants)	4 (4=no disease)	4 (4=no disease)	4 (4=no disease)	0 (0=60-100% of disease on untreated plants)	4 (4=no disease)	4 (4=no disease)							
CO/C=C(/C(=O)OC)c1ccccc1Oc1cc(S(=O)(=O)c2ccccn2)ncn1 [356 of Table I]			0 (0=60-100% of disease on untreated plants)	3 (3=trace-5% of disease on untreated plants)	1 (1=26-59% of disease on untreated plants)	0 (0=60-100% of disease on untreated plants)	4 (4=no disease)	4 (4=no disease)							
CO/C=C(/C(=O)OC)c1ccccc1Oc1cc(OCCc2ccc(C#N)cc2)ncn1 [359 of Table I]			4 (4=no disease)	4 (4=no disease)	4 (4=no disease)	4 (4=no disease)		4 (4=no disease)							
CO/C=C(/C(=O)OC)c1ccccc1Oc1cc(Nc2ccccc2C#N)ncn1 [377 of Table I]		0 (0=60-100% of disease on untreated plants)	4 (4=no disease)	4 (4=no disease)	4 (4=no disease)	4 (4=no disease)	4 (4=no disease)	4 (4=no disease)							
CO/C=C(/C(=O)OC)c1ccccc1Oc1cc(N(C(=O)c2ccccc2)C(=O)c2ccccc2)ncn1 [398 of Table I]		3 (3=trace-5% of disease on untreated plants)	4 (4=no disease)	4 (4=no disease)	4 (4=no disease)	4 (4=no disease)	4 (4=no disease)	4 (4=no disease)							
